Measurements: ChEMBL document CHEMBL5532637, “Antimicrobial activity of natural and semi-synthetic carbazole alkaloids” (Eur J Med Chem, 2023)
≈ marks a conversion by molar mass, not a printed value.

Key:
Escherichia coli [1] = assay: Antibacterial activity against Escherichia coli JW5503 harboring tolC mutant assessed as inhibition of bacterial growth incubated for 16 to 20 hrs by two-fold serial dilution assay; assay type: functional; settings: time 16-20 hrs
Staphylococcus aureus [2] = assay: Antibacterial activity against Staphylococcus aureus assessed as inhibition of bacterial growth; assay type: functional, organism-based
Staphylococcus aureus [3] = assay: Antibacterial activity against Staphylococcus aureus assessed as inhibition of bacterial growth by broth microdilution method; assay type: functional
Klebsiella pneumoniae [4] = assay: Antibacterial activity against Klebsiella pneumoniae assessed as inhibition of bacterial growth by broth microdilution method; assay type: functional
Escherichia coli [5] = assay: Antibacterial activity against Escherichia coli assessed as inhibition of bacterial growth by broth microdilution method; assay type: functional
Pseudomonas aeruginosa [6] = assay: Antibacterial activity against Pseudomonas aeruginosa assessed as inhibition of bacterial growth by broth microdilution method; assay type: functional
Staphylococcus aureus [7] = assay: Antibacterial activity against Staphylococcus aureus TISTR 1466 assessed as inhibition of bacterial growth by two-fold serial dilution method; assay type: functional
Staphylococcus aureus [8] = assay: Antibacterial activity against methicillin-resistant Staphylococcus aureus SK1 assessed as inhibition of bacterial growth by two-fold serial dilution method; assay type: functional
Escherichia coli [9] = assay: Antibacterial activity against Escherichia coli TISTR 780 assessed as inhibition of bacterial growth by two-fold serial dilution method; assay type: functional
Salmonella typhimurium = assay: Antibacterial activity against Salmonella typhimurium TISTR 292 assessed as inhibition of bacterial growth by two-fold serial dilution method; assay type: functional, Salmonella enterica subsp. enterica serovar Typhimurium; settings: Salmonella enterica
Xanthomonas oryzae = assay: Antimicrobial activity against Xanthomonas oryzae by turbidimetric analysis; assay type: functional, organism-based
Xanthomonas axonopodis = assay: Antimicrobial activity against Xanthomonas axonopodis by turbidimetric analysis; assay type: functional, organism-based
[10] = Antimicrobial activity against Pseudomonas syringae pv. actinidiae by turbidimetric analysis; assay type: functional
Staphylococcus aureus [11] = assay: Antimicrobial activity against Staphylococcus aureus ATCC 29213 assessed as inhibition of microbial growth incubated for 24 hrs by two-fold serial dilution assay; assay type: functional
Bacillus subtilis [12] = assay: Antimicrobial activity against Bacillus subtilis ATCC 6633 assessed as inhibition of microbial growth incubated for 24 hrs by two-fold serial dilution assay; assay type: functional
Priestia megaterium = assay: Antimicrobial activity against Bacillus megaterium ATCC 9885 assessed as inhibition of microbial growth incubated for 24 hrs by two-fold serial dilution assay; assay type: functional
Micrococcus luteus = assay: Antimicrobial activity against Sarcina lutea assessed as inhibition of microbial growth incubated for 24 hrs by two-fold serial dilution assay; assay type: functional
Klebsiella pneumoniae [13] = assay: Antimicrobial activity against Klebsiella pneumoniae ATCC 13883 assessed as inhibition of microbial growth incubated for 24 hrs by two-fold serial dilution assay; assay type: functional
Pseudomonas aeruginosa [14] = assay: Antimicrobial activity against Pseudomonas aeruginosa ATCC 27953 assessed as inhibition of microbial growth incubated for 24 hrs by two-fold serial dilution assay; assay type: functional
Escherichia coli [15] = assay: Antimicrobial activity against Escherichia coli ATCC 25922 assessed as inhibition of microbial growth incubated for 24 hrs by two-fold serial dilution assay; assay type: functional
Candida albicans [16] = assay: Antimicrobial activity against Candida albicans NRRL Y-477 assessed as inhibition of microbial growth incubated for 48 hrs by two-fold serial dilution assay; assay type: functional
Candida albicans [17] = assay: Antifungal activity against Candida albicans assessed as inhibition of fungal growth incubated for overnight by MTT based serial dilution method; assay type: functional
Candida tropicalis = assay: Antifungal activity against Candida tropicalis assessed as inhibition of fungal growth incubated for overnight by MTT based serial dilution method; assay type: functional
Aspergillus fumigatus = assay: Antifungal activity against Aspergillus fumigatus assessed as inhibition of fungal growth incubated for overnight by MTT based serial dilution method; assay type: functional
Pasteurella multocida = assay: Antibacterial activity against Pasteurella multocida assessed as inhibition of bacterial growth by agar well diffusion method; assay type: functional
[18] = system: Schizosaccharomyces pombe; assay: Antifungal activity against Schizosaccharomyces pombe DSM 70572 assessed as inhibition of fungal growth incubated for 24 hrs by serial dilution method; assay type: functional
Mucor hiemalis = assay: Antifungal activity against Mucor hiemalis DSM 2656 assessed as inhibition of fungal growth incubated for 24 hrs by serial dilution method; assay type: functional
Rhodotorula glutinis = assay: Antifungal activity against Rhodotorula glutinis DSM 10134 assessed as inhibition of fungal growth incubated for 24 hrs by serial dilution method; assay type: functional
Bacillus subtilis [19] = assay: Antibacterial activity against Bacillus subtilis DSM 10 assessed as inhibition of bacterial growth incubated for 24 hrs by serial dilution method; assay type: functional
[20] = system: Mycolicibacterium smegmatis; assay: Antibacterial activity against Mycobacterium smegmatis DSM ATCC 700084 assessed as inhibition of bacterial growth incubated for 24 hrs by serial dilution method; assay type: functional
Staphylococcus aureus [21] = assay: Antibacterial activity against Staphylococcus aureus DSM 346 assessed as inhibition of bacterial growth incubated for 24 hrs by serial dilution method; assay type: functional
[22] = system: Staphylococcus epidermidis; assay: Antibacterial activity against Staphylococcus epidermidis assessed as zone of inhibition at 25 ug/ml; assay type: functional; settings: read-out: IZ
Proteus vulgaris = assay: Antibacterial activity against Proteus vulgaris assessed as zone of inhibition at 25 ug/ml; assay type: functional; settings: read-out: IZ
Escherichia coli [23] = assay: Antibacterial activity against Escherichia coli assessed as zone of inhibition at 25 ug/ml; assay type: functional; settings: read-out: IZ
Vibrio cholerae = assay: Antibacterial activity against Vibrio cholerae assessed as inhibition of bacterial growth incubated for 24 hrs by broth microdilution method; assay type: functional
Shigella flexneri = assay: Antibacterial activity against Shigella flexneri assessed as inhibition of bacterial growth incubated for 24 hrs by broth microdilution method; assay type: functional
Staphylococcus aureus [24] = assay: Antibacterial activity against Staphylococcus aureus assessed as inhibition of bacterial growth incubated for 24 hrs by broth microdilution method; assay type: functional

SMILES: NC1CCCc2c1[nH]c1ccc(Cl)cc21 (stereo not drawn)
- MIC (Escherichia coli [1]): 37 µg/mL (≈ 168 µM)

SMILES: COc1cc2[nH]c3c4c(c(C)cc3c2cc1OC)OC(C)(C)C=C4
- IC50 (Staphylococcus aureus [2]): 20.9 µM

SMILES: CC(C)=CCCC1(C)C=Cc2c(c(C)cc3c2[nH]c2cc(O)ccc23)O1 (stereo not drawn)
- MIC90 (Staphylococcus aureus [3]): 3.12 µg/mL (≈ 8.98 µM)
- MIC90 (Klebsiella pneumoniae [4]): 3.12 µg/mL (≈ 8.98 µM)
- MIC90 (Escherichia coli [5]): > 100 µg/mL
- MIC90 (Pseudomonas aeruginosa [6]): > 100 µg/mL

SMILES: CC1(C)Oc2ccc3[nH]c4cc(O)c(C=O)cc4c3c2[C@@H](O)[C@H]1O
- MIC (Staphylococcus aureus [7]): 64 µg/mL (≈ 196 µM)
- MIC (Staphylococcus aureus [8]): 64 µg/mL (≈ 196 µM)
- MIC (Escherichia coli [9]): 64 µg/mL (≈ 196 µM)
- MIC (Salmonella typhimurium): 64 µg/mL (≈ 196 µM)

SMILES: O=C(CCn1c2c(c3ccccc31)CCCC2)N1C[C@H]2C[C@H](C1)c1cccc(=O)n1C2
- MIC (Escherichia coli [1]): 42.1 µg/mL (≈ 101 µM)

SMILES: OC(CNCc1cn(-c2ccc(F)cc2)nn1)Cn1c2ccccc2c2ccccc21 (stereo not drawn)
- EC50 (Xanthomonas oryzae): 3.36 µg/mL (≈ 8.09 µM)
- EC50 (Xanthomonas axonopodis): 2.87 µg/mL (≈ 6.91 µM)
- EC50 [10]: 14.2 µg/mL (≈ 34.2 µM)

SMILES: O=C(NN1C(=O)C(Cl)=C(Cl)C1=O)c1ccc(-n2c3c(c4ccccc42)CCCC3)cc1
- MIC (Staphylococcus aureus [11]): 25 µg/mL
- MIC (Bacillus subtilis [12]): 25 µg/mL
- MIC (Priestia megaterium): 25 µg/mL
- MIC (Micrococcus luteus): 25 µg/mL
- MIC (Klebsiella pneumoniae [13]): 25 µg/mL
- MIC (Pseudomonas aeruginosa [14]): 25 µg/mL
- MIC (Escherichia coli [15]): 25 µg/mL
- MIC (Candida albicans [16]): 25 µg/mL

SMILES: O=C1COc2ccccc2N1CC(O)CN1CCN(CC(O)Cn2c3ccccc3c3ccccc32)CC1 (stereo not drawn)
- EC50 (Xanthomonas oryzae): 4.95 µg/mL (≈ 9.62 µM)
- EC50 (Xanthomonas axonopodis): 4.71 µg/mL (≈ 9.15 µM)
- EC50 [10]: 8.5 µg/mL (≈ 16.5 µM)

SMILES: COCn1c2c(c3cccc(C)c31)Cc1cocc1C2
- MIC (Candida albicans [17]): 7.81 µg/mL (≈ 29.2 µM)
- MIC (Candida tropicalis): 7.81 µg/mL (≈ 29.2 µM)
- MIC (Aspergillus fumigatus): 7.81 µg/mL (≈ 29.2 µM)

SMILES: C/C(=N/Nc1ccc([N+](=O)[O-])cc1[N+](=O)[O-])C1CCCc2c1n(C)c1c([N+](=O)[O-])cc([N+](=O)[O-])cc21 (stereo not drawn)
- MIC (Pasteurella multocida): 4.5 µg/mL (≈ 9.05 µM)

SMILES: COCn1c2c(c3cc(F)ccc31)Cc1cocc1C2
- MIC (Candida albicans [17]): 7.81 µg/mL (≈ 28.8 µM)
- MIC (Candida tropicalis): 7.81 µg/mL (≈ 28.8 µM)
- MIC (Aspergillus fumigatus): 7.81 µg/mL (≈ 28.8 µM)

SMILES: Clc1ccc2[nH]c3c(c2c1)CCCC31CCCn2ccnc21 (stereo not drawn)
- MIC [18]: 53.2 µM (≈ 16.6 µg/mL)
- MIC (Mucor hiemalis): 53.2 µM (≈ 16.6 µg/mL)
- MIC (Rhodotorula glutinis): 53.2 µM (≈ 16.6 µg/mL)
- MIC (Bacillus subtilis [19]): 53.2 µM (≈ 16.6 µg/mL)
- MIC [20]: 53.2 µM (≈ 16.6 µg/mL)
- MIC (Staphylococcus aureus [21]): 53.2 µM (≈ 16.6 µg/mL)

SMILES: O=C(NN1C(=O)c2ccccc2C1=O)c1ccc(-n2c3c(c4ccccc42)CCCC3)cc1
- MIC (Staphylococcus aureus [11]): 25 µg/mL
- MIC (Bacillus subtilis [12]): 25 µg/mL
- MIC (Priestia megaterium): 25 µg/mL
- MIC (Micrococcus luteus): 25 µg/mL
- MIC (Klebsiella pneumoniae [13]): 25 µg/mL
- MIC (Pseudomonas aeruginosa [14]): 25 µg/mL
- MIC (Escherichia coli [15]): 25 µg/mL
- MIC (Candida albicans [16]): 25 µg/mL

SMILES: COC(=O)c1cc(O)c2[nH]c3ccc4c(c3c2c1)C=CC(C)(C)O4
- MIC (Staphylococcus aureus [7]): 64 µg/mL (≈ 198 µM)
- MIC (Staphylococcus aureus [8]): 64 µg/mL (≈ 198 µM)
- MIC (Escherichia coli [9]): 64 µg/mL (≈ 198 µM)
- MIC (Salmonella typhimurium): 64 µg/mL (≈ 198 µM)

SMILES: Cc1ccc2[nH]c3c(c2c1)CC/C(=C\c1ccc(Br)cc1)C3=O
- zone of inhibition at 25 µg/mL [22]: 15 mm
- zone of inhibition at 25 µg/mL (Proteus vulgaris): 15 mm
- zone of inhibition at 25 µg/mL (Escherichia coli [23]): 15 mm

SMILES: COc1cc(C)c(CC=C(C)C)c2c1[nH]c1ccccc12
- MIC (Vibrio cholerae): 32 µg/mL (≈ 115 µM)
- MIC (Shigella flexneri): 32 µg/mL (≈ 115 µM)
- MIC (Staphylococcus aureus [24]): 32 µg/mL (≈ 115 µM)

SMILES: NCC1CCCc2c1[nH]c1ccc(Cl)cc21 (stereo not drawn)
- MIC (Escherichia coli [1]): 21.1 µg/mL (≈ 89.9 µM)

SMILES: CC(C)=CCc1c(O)ccc2[nH]c3cc(O)c(C=O)cc3c12
- MIC (Staphylococcus aureus [7]): 64 µg/mL (≈ 217 µM)
- MIC (Staphylococcus aureus [8]): 64 µg/mL (≈ 217 µM)
- MIC (Escherichia coli [9]): 64 µg/mL (≈ 217 µM)
- MIC (Salmonella typhimurium): 64 µg/mL (≈ 217 µM)

SMILES: CC(C)=CCC[C@@]1(C)C=Cc2c(ccc3c2[nH]c2ccc(C=O)cc23)O1
- IC50 (Staphylococcus aureus [2]): 11.7 µM

SMILES: Brc1ccc2[nH]c3c(c2c1)CCCC31CCCn2ccnc21 (stereo not drawn)
- MIC [18]: 66.6 µM (≈ 23.7 µg/mL)
- MIC (Mucor hiemalis): 66.6 µM (≈ 23.7 µg/mL)
- MIC (Rhodotorula glutinis): 66.6 µM (≈ 23.7 µg/mL)
- MIC (Bacillus subtilis [19]): 66.6 µM (≈ 23.7 µg/mL)
- MIC [20]: 66.6 µM (≈ 23.7 µg/mL)
- MIC (Staphylococcus aureus [21]): 66.6 µM (≈ 23.7 µg/mL)
